Experiments:
[1] = target: GST-fused human Keap1 (amino acid residues: 325-642) protein (Homo sapiens (Human), UniProt Q14145); assay: FP assay (in vitro): inhibition of binding between Nrf2 and Keap1 by fluorescence polarization; details: 20 nM GST-fused human Keap1, 10 nM FITC-labeled Nrf2 peptide, 2 hr at room temperature
Procedure: Experimental Example 1: FP Assay (In Vitro)
The inhibitory activity of test compounds on the binding between Nrf2 and Keap1 was determined by fluorescence polarization. A solution of 50 mM Tris-HCl pH.8.0 (NACALAI, REF: 06938-15), and 5 mM DTT (SIGMA-ALDRICH, REF: 646563-10X.5 mL) was used as a buffer solution. 8 μL of a buffer solution containing 40 nM GST-fused human Keap1 (amino acid residues: 325-642) protein (Protein tech, REF: Ag0779) was taken in a black 384-well plate (final concentration 20 nM), and 4 μL of the test compound solution prepared to each concentration in buffer solution was added thereto. A well containing a portion of the buffer solution without Keap1 was placed as a negative control. A well with no compound was used as a positive control. 40 nM of FITC-labeled Nrf2 peptide (FITC-X-LQLDEETGEFLPIQ (X=ε-Acp), Peptide Institute Inc.) was added thereto (10 nM final concentration). The wells were incubated at room temperature for 2 hr, and then fluorescence polarization was measured with a plate reader SPECTRAMAX Paradigm (Molecular devices) at excitation wavelength of 485 nm and fluorescence wavelength of 535 nm. The fluorescence polarization of the negative control was set to 100% inhibition and that of the positive control to 0% inhibition, and the inhibitory rate upon addition of the test compound was calculated using the following formula.

[2] = tested on: NQO1 activity in Hepa1c1c7 cells; assay: NAD(P)H: quinone oxidoreductase-1 (NQO1) enzyme induction assay (in vitro); format: cell-based, mouse; details: Mus musculus, Hepa-1c1c7, NQO1 activity upon addition of 400 nM of test compound, about 48 hr, ratio from the base without the compound
Procedure: Experimental Example 2: NAD(P)H: Quinone Oxidoreductase-1 (NQO1) Enzyme Induction Assay (In Vitro)
The NQO1 assay was performed based on a previous report (Methods in Enzymology 2004; 382: 243-258). Hepa1c1c7 cells (mouse hepatocyte cell line, ATCC, cat. no. CRL-2026) were cultured in D-MEM medium containing 10% FBS and 1% penicillin/streptomycin (5% CO2, 37° C.), and seeded into 96-well plates (Corning REF. 353072) at 1×10^4 cells/well. A portion of the wells were prepared with medium only for background measurement without seeding cells. The next day, 400 nM of the test compound (0.004% of the final concentration in DMSO) dissolved in DMSO was added thereto, and the wells were incubated for about 48 hr. A well without adding the test compound was prepared for base activity assay in part.
Cell lysate (solution containing 0.8% digitonin, 2 mM EDTA), reaction solution (solution containing 25 mM Tris-HCl, 0.07% albumin, 0.01% Tween-20, 2 U/mL glucose-6-phosphate dehydrogenase, 5 μM flavin adenine dinucleotide, 1 μM glucose-6-phosphate, 30 μM nicotinamide adenine dinucleotide phosphate, 0.03% 3-(4,5-dimethyl-2-thiazolyl)-2,5-diphenyltetrazolium bromide (MTT), and 50 μM menadione), stop solution (solution containing 0.3 mM dicoumarol and 5 mM potassium dihydrogen phosphate, pH 7.4) were prepared. After the medium was removed, 50 μL of the cell lysate was added and incubated at 37° C. for 10 minutes, followed by shaking at room temperature for 10 minutes. 200 μL of reaction solution was added thereto, and allowed to stand for 5 minutes at room temperature. 50 μL of the stop solution was added thereto, and absorbance was measured at 610 nm on a SpectraMax PLUS384 (Molecular devices) or POWERSCAN HT (DS Pharma Biomedical). The test results were analyzed in Excel, and the NQO1 activity upon addition of 400 nM of test compound was calculated as a ratio from the base without the compound.
The results of each test compound in this test are shown in the following Table 2 (A: 5<NQO1 activity ratio, B: 3<NQO1 activity ratio 5, C: 1.5<NQO1 activity ratio 3).

Sequence of GST-fused human Keap1 (amino acid residues: 325-642) protein (Q14145 325-624 limits assumed): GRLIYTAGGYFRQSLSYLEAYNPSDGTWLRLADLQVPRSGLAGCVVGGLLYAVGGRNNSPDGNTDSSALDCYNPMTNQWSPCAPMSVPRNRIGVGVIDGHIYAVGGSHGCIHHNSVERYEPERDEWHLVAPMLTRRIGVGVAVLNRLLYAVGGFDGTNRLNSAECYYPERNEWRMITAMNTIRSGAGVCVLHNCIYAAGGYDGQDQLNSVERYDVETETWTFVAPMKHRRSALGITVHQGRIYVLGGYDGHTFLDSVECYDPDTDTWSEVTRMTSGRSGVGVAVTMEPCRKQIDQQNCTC

Compound	IC50 [1] [nM]	fold induction at 0.4 µM [2]
CC[C@@H]1CN(Cc2cc([C@@H](CC(=O)O)c3ccc4c(nnn4C)c3C)cc3ccsc23)Cc2nc(O)ccc2O1 [Example 2, (3R)-3-(1,4-Dimethyl-1H-benzotriazol-5-yl)-3-(7-{[(2R)-2-ethyl-7-hydroxy-2,3-dihydropyrido[2,3-f][1,4]oxazepin-4(5H)-yl]methyl}-1-benzothiophen-5-yl)propanoic acid]	30 to 300	> 5
Cc1c([C@@H](CC(=O)O)c2cc(CN3Cc4nc(O)ccc4OC4(CC4)C3)c3sccc3c2)ccc2c1nnn2C [Example 3, (3S)-3-(1,4-Dimethyl-1H-benzotriazol-5-yl)-3-{7-[(7′-hydroxy-3′H-spiro[cyclopropane-1,2′-pyrido[2,3-f][1,4]oxazepin]-4′(5′H)-yl)methyl]-1-benzothiophen-5-yl}propanoic acid]	10 to 30	> 5
Cc1c([C@H](CC(=O)O)c2cc(CN3Cc4nc(O)ccc4OC4(CC4)C3)c3sccc3c2)ccc2c1nnn2C [Example 4, (3R)-3-(1,4-Dimethyl-1H-benzotriazol-5-yl)-3-{7-[(7′-hydroxy-3′H-spiro[cyclopropane-1,2′-pyrido[2,3-f][1,4]oxazepin]-4′ (5′H)-yl)methyl]-1-benzothiophen-5-yl}propanoic acid]	10 to 30	> 5
Cc1c([C@@H](CC(=O)O)c2cc(CN3Cc4nc(O)ccc4O[C@H](C4CC4)C3)c3sccc3c2)ccc2c1nnn2C [Example 6, (3S)-3-(7-{[(2R)-2-Cyclopropyl-7-hydroxy-2,3-dihydropyrido[2,3-f][1,4]oxazepin-4(5H)-yl]methyl}-1-benzothiophen-5-yl)-3-(1,4-dimethyl-1H-benzotriazol-5-yl)propanoic acid]	10 to 30	> 5
Cc1c([C@@H](CC(=O)O)c2cc(CN3Cc4nc(O)ccc4O[C@@H](C4CC4)C3)c3sccc3c2)ccc2c1nnn2C [Example 7, (3S)-3-(7-{[(2S)-2-Cyclopropyl-7-hydroxy-2,3-dihydropyrido[2,3-f][1,4]oxazepin-4(5H)-yl]methyl}-1-benzothiophen-5-yl)-3-(1,4-dimethyl-1H-benzotriazol-5-yl)propanoic acid]	30 to 300	> 5
Cc1c([C@H](CC(=O)O)c2cc(CN3Cc4nc(O)ccc4O[C@@H](C4CC4)C3)c3sccc3c2)ccc2c1nnn2C [Example 8, (3R)-3-(7-{[(2S)-2-Cyclopropyl-7-hydroxy-2,3-dihydropyrido[2,3-f][1,4]oxazepin-4(5H)-yl]methyl}-1-benzothiophen-5-yl)-3-(1,4-dimethyl-1H-benzotriazol-5-yl)propanoic acid]	30 to 300	3 to 5
Cc1c([C@@H](CC(=O)O)c2cc(CN3Cc4nc(O)ccc4O[C@H](C4CC4)C3)c3sccc3c2)cnc2c1nnn2C [Example 9, (3S)-3-(7-{[(2R)-2-Cyclopropyl-7-hydroxy-2,3-dihydropyrido[2,3-f][1,4]oxazepin-4(5H)-yl]methyl}-1-benzothiophen-5-yl)-3-(3,7-dimethyl-3H-[1,2,3]triazolo[4,5-b]pyridin-6-yl)propanoic acid]	30 to 300	> 5
Cc1c([C@H](CC(=O)O)c2cc(CN3Cc4nc(O)ccc4O[C@H](C4CC4)C3)c3sccc3c2)cnc2c1nnn2C [Example 10, (3R)-3-(7-{[(2R)-2-Cyclopropyl-7-hydroxy-2,3-dihydropyrido[2,3-f][1,4]oxazepin-4(5H)-yl]methyl}-1-benzothiophen-5-yl)-3-(3,7-dimethyl-3H-[1,2,3]triazolo[4,5-b]pyridin-6-yl)propanoic acid]	10 to 30	> 5
Cc1c([C@H](c2cc(CN3Cc4nc(O)ccc4O[C@H](C4CC4)C3)c3sccc3c2)C(C)(C)C(=O)O)ccc2c1nnn2C [Example 14, (3S)-3-(7-{[(2R)-2-Cyclopropyl-7-hydroxy-2,3-dihydropyrido[2,3-f][1,4]oxazepin-4(5H)-yl]methyl}-1-benzothiophen-5-yl)-3-(1,4-dimethyl-1H-benzotriazol-5-yl)-2,2-dimethylpropanoic acid]	≤ 10	> 5
Cc1c([C@@H](CC(=O)O)c2cc(CN3Cc4nc(O)ccc4O[C@H](C)C3)c3sccc3c2)ccc2c1nnn2C [Example 15, (3S)-3-(1,4-Dimethyl-1H-benzotriazol-5-yl)-3-(7-{[(2R)-7-hydroxy-2-methyl-2,3-dihydropyrido[2,3-f][1,4]oxazepin-4(5H)-yl]methyl}-1-benzothiophen-5-yl)propanoic acid]	10 to 30	> 5
Cc1c([C@H](CC(=O)O)c2cc(CN3Cc4nc(O)ccc4O[C@H](C)C3)c3sccc3c2)ccc2c1nnn2C [Example 16, (3R)-3-(1,4-Dimethyl-1H-benzotriazol-5-yl)-3-(7-{[(2R)-7-hydroxy-2-methyl-2,3-dihydropyrido[2,3-f][1,4]oxazepin-4(5H)-yl]methyl}-1-benzothiophen-5-yl)propanoic acid]	30 to 300	> 5
CC[C@@H]1CN(Cc2cc([C@H](CC(=O)O)c3cc(C)c4c(nnn4C)c3C)cc3ccsc23)Cc2nc(O)ccc2O1 [Example 17, (3S)-3-(7-{[(2R)-2-Ethyl-7-hydroxy-2,3-dihydropyrido[2,3-f][1,4]oxazepin-4(5H)-yl]methyl}-1-benzothiophen-5-yl)-3-(1,4,7-trimethyl-1H-benzotriazol-5-yl)propanoic acid]	30 to 300	> 5
CC[C@@H]1CN(Cc2cc([C@@H](CC(=O)O)c3cc(C)c4c(nnn4C)c3C)cc3ccsc23)Cc2nc(O)ccc2O1 [Example 18, (3R)-3-(7-{[(2R)-2-Ethyl-7-hydroxy-2,3-dihydropyrido[2,3-f][1,4]oxazepin-4(5H)-yl]methyl}-1-benzothiophen-5-yl)-3-(1,4,7-trimethyl-1H-benzotriazol-5-yl)propanoic acid]	30 to 300	> 5
CC[C@@H]1CN(Cc2cc([C@@H](CC(=O)O)c3ccc4c(nnn4CC(C)(C)O)c3C)cc3ccsc23)Cc2nc(O)ccc2O1 [Example 19, (3R)-3-(7-{[(2R)-2-Ethyl-7-hydroxy-2,3-dihydropyrido[2,3-f][1,4]oxazepin-4(5H)-yl]methyl}-1-benzothiophen-5-yl)-3-[1-(2-hydroxy-2-methylpropyl)-4-methyl-1H-benzotriazol-5-yl]propanoic acid]	30 to 300	3 to 5
CC[C@@H]1CN(Cc2cc([C@H](CC(=O)O)c3ccc4c(nnn4CC(C)(C)O)c3C)cc3ccsc23)Cc2nc(O)ccc2O1 [Example 20, (3S)-3-(7-{[(2R)-2-Ethyl-7-hydroxy-2,3-dihydropyrido[2,3-f][1,4]oxazepin-4(5H)-yl]methyl}-1-benzothiophen-5-yl)-3-[1-(2-hydroxy-2-methylpropyl)-4-methyl-1H-benzotriazol-5-yl]propanoic acid]	10 to 30	3 to 5
CC[C@@H]1CN(Cc2cc([C@@H](CC(=O)O)c3cc(OC)c4c(nnn4C)c3C)cc3ccsc23)Cc2nc(O)ccc2O1 [Example 21, (3R)-3-(7-{[(2R)-2-Ethyl-7-hydroxy-2,3-dihydropyrido[2,3-f][1,4]oxazepin-4(5H)-yl]methyl}-1-benzothiophen-5-yl)-3-(7-methoxy-1,4-dimethyl-1H-benzotriazol-5-yl)propanoic acid]	10 to 30	> 5
